Test: xn = mol fraction of the nth substance listed
Conditions: 101 kPa, Liquid; for mass density: Vibrating tube method

C1CCOC1 [tetrahydrofuran] + CCCCO
Conditions | mass density [kg/m3] | viscosity [mPa·s]
288.15 K, x1 = 0.1001 | 820.7 | 2.377
288.15 K, x1 = 0.2003 | 828.11 | 1.788
288.15 K, x1 = 0.3 | 835.61 | 1.416
288.15 K, x1 = 0.4003 | 843.28 | 1.15
288.15 K, x1 = 0.5 | 851.03 | 0.962
288.15 K, x1 = 0.6001 | 858.98 | 0.836
288.15 K, x1 = 0.7003 | 867.19 | 0.723
288.15 K, x1 = 0.8006 | 875.64 | 0.642
288.15 K, x1 = 0.9002 | 884.34 | 0.578
288.15 K, x1 = 1 | 893.29 | 0.522
293.15 K, x1 = 0.1001 | 816.75 | 2.111
293.15 K, x1 = 0.2003 | 823.99 | 1.612
293.15 K, x1 = 0.3 | 831.34 | 1.292
293.15 K, x1 = 0.4003 | 838.84 | 1.061
293.15 K, x1 = 0.5 | 846.43 | 0.895
293.15 K, x1 = 0.6001 | 854.21 | 0.785
293.15 K, x1 = 0.7003 | 862.27 | 0.683
293.15 K, x1 = 0.8006 | 870.54 | 0.61
293.15 K, x1 = 0.9002 | 879.08 | 0.555
293.15 K, x1 = 1 | 887.86 | 0.502
298.15 K, x1 = 0.1001 | 812.77 | 1.882
298.15 K, x1 = 0.2003 | 819.86 | 1.46
298.15 K, x1 = 0.3 | 827.04 | 1.184
298.15 K, x1 = 0.4003 | 834.38 | 0.979
298.15 K, x1 = 0.5 | 841.8 | 0.834
298.15 K, x1 = 0.6001 | 849.43 | 0.736
298.15 K, x1 = 0.7003 | 857.31 | 0.645
298.15 K, x1 = 0.8006 | 865.41 | 0.579
298.15 K, x1 = 0.9002 | 873.78 | 0.528
298.15 K, x1 = 1 | 882.4 | 0.48
303.15 K, x1 = 0.1001 | 808.76 | 1.687
303.15 K, x1 = 0.2003 | 815.69 | 1.331
303.15 K, x1 = 0.3 | 822.71 | 1.087
303.15 K, x1 = 0.4003 | 829.89 | 0.908
303.15 K, x1 = 0.5 | 837.15 | 0.779
303.15 K, x1 = 0.6001 | 844.61 | 0.692
303.15 K, x1 = 0.7003 | 852.32 | 0.61
303.15 K, x1 = 0.8006 | 860.26 | 0.55
303.15 K, x1 = 0.9002 | 868.46 | 0.502
303.15 K, x1 = 1 | 876.91 | 0.459
308.15 K, x1 = 0.1001 | 804.73 | 1.517
308.15 K, x1 = 0.2003 | 811.49 | 1.215
308.15 K, x1 = 0.3 | 818.36 | 1
308.15 K, x1 = 0.4003 | 825.36 | 0.843
308.15 K, x1 = 0.5 | 832.46 | 0.728
308.15 K, x1 = 0.6001 | 839.75 | 0.652
308.15 K, x1 = 0.7003 | 847.3 | 0.576
308.15 K, x1 = 0.8006 | 855.06 | 0.521
308.15 K, x1 = 0.9002 | 863.09 | 0.478
308.15 K, x1 = 1 | 871.38 | 0.44
313.15 K, x1 = 0.1001 | 800.66 | 1.368
313.15 K, x1 = 0.2003 | 807.26 | 1.111
313.15 K, x1 = 0.3 | 813.96 | 0.922
313.15 K, x1 = 0.4003 | 820.81 | 0.782
313.15 K, x1 = 0.5 | 827.74 | 0.681
313.15 K, x1 = 0.6001 | 834.86 | 0.608
313.15 K, x1 = 0.7003 | 842.24 | 0.543
313.15 K, x1 = 0.8006 | 849.83 | 0.494
313.15 K, x1 = 0.9002 | 857.7 | 0.454
313.15 K, x1 = 1 | 865.81 | 0.418
318.15 K, x1 = 0.1001 | 796.55 | 1.238
318.15 K, x1 = 0.2003 | 802.99 | 1.019
318.15 K, x1 = 0.3 | 809.53 | 0.852
318.15 K, x1 = 0.4003 | 816.21 | 0.727
318.15 K, x1 = 0.5 | 822.98 | 0.637
318.15 K, x1 = 0.6001 | 829.93 | 0.571
318.15 K, x1 = 0.7003 | 837.14 | 0.513
318.15 K, x1 = 0.8006 | 844.56 | 0.466
318.15 K, x1 = 0.9002 | 852.25 | 0.428
318.15 K, x1 = 1 | 860.2 | 0.396
323.15 K, x1 = 0.1001 | 792.4 | 1.139
323.15 K, x1 = 0.2003 | 798.67 | 0.949
323.15 K, x1 = 0.3 | 805.05 | 0.795
323.15 K, x1 = 0.4003 | 811.57 | 0.683
323.15 K, x1 = 0.5 | 818.17 | 0.599
323.15 K, x1 = 0.6001 | 824.96 | 0.546
323.15 K, x1 = 0.7003 | 832 | 0.487
323.15 K, x1 = 0.8006 | 839.25 | 0.444
323.15 K, x1 = 0.9002 | 846.77 | 0.41
323.15 K, x1 = 1 | 854.55 | 0.384

From the NIST ThermoML archive (doi:10.1021/je4003916)
